≈ marks a conversion by molar mass, not a printed value.
Experiments:
[1] = test system: L. ramosa; assay: Checkerboard MICs of AmB, ISA and PEG15HS in solution; type: cell-based, Lichtheimia ramosa; details: RPMI, 24 h at 37° C.
Procedure: (§1) AmB minimum inhibitory concentrations (MIC) of each strain of Mucorales was measured in RPMI in the presence of different concentrations of ISA or PEG15HS as described by the EUCAST broth microdilution antifungal susceptibility test methodology with modification for the checkerboard procedure. Checkerboards were performed by adding 100 μL of two-fold dilutions of AmB (0.008 to 4 mg/L) and ISA (0.008 to 4 mg/L) or PEG15HS (0.04 to 2752 mg/L) in 96 well plates. One hundred microliters of a spore suspension at a concentration of 105 spores/mL were added to the wells, and the plates were incubated for 24 h at 37° C. […] Three experiments were performed for each strain.
(§2) AmB MIC of each strain of Mucorales was measured in RPMI in the presence of different concentrations of ISA and a constant concentration of PEG15HS (100 times the concentration of AmB) as described by the EUCAST broth microdilution antifungal susceptibility test methodology with modification for the checkerboard procedure. Checkerboards were performed by adding 100 μL of two-fold dilutions of AmB (0.008 to 4 mg/L)+PEG15HS (0.8 to 400 mg/L) and ISA (0.008 to 4 mg/L) in 96 well plates. One hundred microliters of a spore suspension at a concentration of 105 spores/mL were added to the wells, and the plates were incubated for 24 h at 37° C. […] Three experiments were performed for each strain. […]

[2] = test system: Rhizopus arrhizus 1; assay: EUCAST MICs of AmB, ISA, AmB-loaded LNPs and AmB-ISA-loaded LNPs; type: cell-based; details: 24 h at 37° C.
Procedure: (§3) Briefly, a mass (80-120 mg) of an oil phase consisting of triglycerides (Labrafac®, or tributyrin in different mass ratios, i.e. 100% Labrafac® to 100% tributyrin) was supplemented with AmB (0,025 to 0.2 mg) and ISA (0.25 to 5 mg) and then mixed with 80 to 120 mg of PEG15HS (Solutol HS15®) and 500 to 800 μl of water to form an oil-in-water emulsion. This emulsion was then heated to 85° C., to obtain a water-in-oil emulsion, and then cooled to 40° C. Three such temperature cycles were performed and the system was then fast cooled to 4° C. The formulated nanoparticles were then characterized by size distribution and mean zeta potential measurements. Examples of formulations of LNPs loaded with AmB and AmB-ISA are detailed in Table 5:
(§4) Rhizopus arrhizus 1, Lichtheimia corymbifera and Lichtheimia ramosa strains were used. These correspond to the most frequently encountered species in human mucormycosis. These three strains were isolated from patients suffering from pulmonary mucormycosis.
(§5) MICs of AmB in solution, ISA in solution, AmB-loaded LNPs, and AmB-ISA-loaded LNPs were evaluated according to the European Committee on Antimicrobial Susceptibility Testing (EUCAST) guidelines. Briefly, MICs were determined by adding 100 μL of two-fold dilutions of AmB in solution, ISA in solution, AmB-LNPs or AmB-ISA-LNPs (0.008 to 4 mg/L) in 96-well plates. One hundred microliters of a spore suspension at a concentration of 105 spores/mL were added to the wells, and the plates were incubated for 24 h (Mucorales) or 48 h (A. fumigatus) at 37° C. […] Three experiments were performed for each strain.

[3] = test system: Lichtheimia corymbifera; assay: as above; type: cell-based; details: 24 h at 37° C.
Procedure: as §3, §4, §5

[4] = test system: Lichtheimia ramosa; assay: as above; type: cell-based; details: 24 h at 37° C.
Procedure: as §3, §4, §5

[5] = test system: Lichtheimia ramosa; assay: MIC of AmB in solution with blank lipid nanoparticles (BLNPs), EUCAST broth microdilution; type: cell-based; details: AmB in solution in RPMI, without PEG15HS LNPs
Procedure: MICs for each fungi were measured in the presence of different concentrations of AmB (solubilized in the LNP suspensions or loaded in the LNP) as described by the EUCAST broth microdilution antifungal susceptibility test methodology (EUCAST DEFINITIVE DOCUMENT E.Def 9.3.2 Apr. 2020. EUCAST antifungal MIC method for mould).
A clinical isolate of Lichtheimia ramosa was used. Isolate were subcultured from frozen stocks (−80° C.) on 75 cm^3 flasks containing 15 ml of Sabouraud dextrose agar (Sigma-Aldrich, St. Quentin Fallavier, France) during 3 days at 37° C. Spores were collected by flooding the flask with 10 mL of sterile water. The suspensions were filtered on nylon filter (Millipore, Carrigtwohill, Ireland) with pore size of 11 μm to remove hyphal elements. The concentration of the spore suspensions was then adjusted in sterile water to obtain inocula of 2×10^5 spores/mL.
The MIC of the formulations for Lichtheimia ramosa was assayed.

[6] = test system: Rhizopus arrhizus 1; assay: Checkerboard MICs of AmB, ISA and PEG15HS in solution; type: cell-based; details: RPMI, 24 h at 37° C.
Procedure: as §1, §2

[7] = test system: Cryptococcus neoformans; assay: EUCAST MICs of AmB alone and AmB formulated in LNPs; type: cell-based
Procedure: This medium was sterilized using a 0.22 μm pore-size filter.
AmB powder (Sigma-Aldrich) was dissolved in dimethyl sulfoxide to obtain a stock solution at 1000 mg/L, stored at −80° C. for six months.
On the day of use, AmB and freshly made AmB-loaded LNPs were diluted in RPMI medium to obtain the desired concentrations. The AmB-loaded LNPs were prepared as detailed in Example 5.
MICs of AmB alone and AmB formulated in LNPs were evaluated according to the European Committee on Antimicrobial Susceptibility Testing (EUCAST) guidelines. Briefly, MICs were determined by adding 100 μL of two-fold dilutions of AmB (0.008 to 4 mg/L) and LNPs-AmB (0.04 to 1024 mg/L) in 96-well plates. One hundred microliters of a fungal suspension at a final concentration of 10^5 CFU/mL was added to the wells, and the plates were incubated for 48 h at 30° C. MICs, defined as the lowest concentration of AmB inhibiting 90% of the growth of the fungal strain, were read after […] of incubation by measuring absorbance at 530 nm with an Infinite M200 Pro microplate reader (Tecan®, France). Three experiments were performed for each strain.

[8] = test system: Aspergillus fumigatus; assay: EUCAST MICs of AmB, ISA, AmB-loaded LNPs and AmB-ISA-loaded LNPs; type: cell-based; details: A. fumigatus 20 (ATCC 204305), 48 h at 37° C.
Procedure: as §3
Two reference strains (ATCC 16424 and ATCC 204305) and a clinical azole-resistant strain (AfR2) of Aspergillus fumigatus were used.
as §5

## C[C@@H]1[C@H](O)[C@@H](C)/C=C/C=C/C=C/C=C/C=C/C=C/C=C/[C@H](O[C@@H]2O[C@H](C)[C@@H](O)[C@H](N)[C@@H]2O)C[C@@H]2O[C@](O)(C[C@@H](O)C[C@@H](O)[C@H](O)CC[C@@H](O)C[C@@H](O)CC(=O)O[C@H]1C)C[C@H](O)[C@H]2C(=O)O [AmB, amphotericin B]
[1]
  MIC of AmB: 1 mg/L
[2]
  MIC (AmB): 1 mg/L (≈ 1.08 µM)
[3]
  MIC (AmB): 1 mg/L (≈ 1.08 µM)
[4]
  MIC (AmB): 1 mg/L (≈ 1.08 µM)
[5]
  MIC of AmB: 0.5 mg/L
[6]
  MIC of AmB: 1 mg/L
[7]
  effect on growth of the cryptococci at concentrations below the MIC: had no effect on the growth profile
[7]; all the isolates (eight clinical strains)
  MIC: 0.25 to 1 mg/L
[7]; strain C1, 90% growth inhibition, absorbance at 530 nm
  MIC: 0.5 mg/L (≈ 0.541 µM)
[7]; strain C2, 90% growth inhibition, absorbance at 530 nm
  MIC: 0.25 mg/L (≈ 0.271 µM)
[7]; strain C3, 90% growth inhibition, absorbance at 530 nm
  MIC: 0.5 mg/L (≈ 0.541 µM)
[7]; strain C4, 90% growth inhibition, absorbance at 530 nm
  MIC: 0.5 mg/L (≈ 0.541 µM)
[7]; strain C5, 90% growth inhibition, absorbance at 530 nm
  MIC: 1 mg/L (≈ 1.08 µM)
[7]; strain C6, 90% growth inhibition, absorbance at 530 nm
  MIC: 1 mg/L (≈ 1.08 µM)
[7]; strain C7, 90% growth inhibition, absorbance at 530 nm
  MIC: 1 mg/L (≈ 1.08 µM)
[7]; strain C8, 90% growth inhibition, absorbance at 530 nm
  MIC: 1 mg/L (≈ 1.08 µM)
[8]
  MIC (AmB): 2 mg/L (≈ 2.16 µM)
